Broadly, the Cmax is the highest concentration seen after dosing. Usually clearance stands for the volume of plasma or blood freed of the substance per unit of time.

The results in this text go back to patent US8178490B2, “Polybasic bacterial efflux pump inhibitors and therapeutic uses thereof” (priority 2007, dated 2012).

The test system of data set [1] is P. aeruginosa PAM1723, overexpressing the MexABOprM efflux pump. Format: cell-based, Pseudomonas aeruginosa. The note with it: lowest inhibitor concentration giving antibacterial activity with levofloxacin at 1/8 of its MIC. An excerpt: (§1) EPI activity is defined as concentration of an EPI compound that is necessary to achieve ½ of a maximum theoretical effect in increase of antibiotic susceptibility due to efflux inhibition. The maximum theoretical effect, Emax, is defined as a ratio of antibacterial activity of antibiotics (minimal inhibitory concentration, MIC) of pump overexpressing vs. pump lacking strains. […] The strain PAM1723, overexpressing the MexABOprM efflux pump was used as a test strain. […] Azithromycin was used as test antibiotic to assess the EPI activity in Klebsiella pneumoniae. The strain KPM1004 overexpressing the AcrABTolC efflux pump was used as a test strain. […] Thus, EPI activity, that is assessed in K. pneumoniae, is a concentration of an EPI compound that is necessary to increase susceptibility to azithromicin of KPM1004 sixteen fold.
(§2) The EPI activity of the test compounds was assessed by the checkerboard assay (Antimicrobial Combinations, Antibiotics in Laboratory Medicine, Ed. Victor Lorian, M.D., Fourth edition, 1996, pp 333338, which is incorporated herein by reference in its entirety) using a broth microdilution method performed as recommended by the NCCLS (National Committee for Clinical Laboratory Standards (NCCLS), 1997, Methods for Dilution of Antimicrobial Susceptibility Tests for Bacteria That Grow Aerobically, Fourth Edition; Approved Standard. NCCLS Document M7A4, Vol 17 No. 2, which is incorporated herein by reference in its entirety). […] All EPI compounds were readily soluble in water and stock solutions were prepared at a final concentration of 10 mg/ml. Stock solutions were further diluted, according to the needs of the particular assay, in Mueller Hinton Broth (MHB). Stock solution was stored at −80° C. The checkerboard assay was performed in microtiter plates. […] EPIs were diluted in the axis, each row containing a single concentration of an EPI. […] The assay was performed in MHB with a final bacterial (PAM1723 or […]) inoculum of 5 times 10^5 CFU/ml (from an early log phase culture). Microtiter plates were incubated during 20 h at 35° C. and were read using a microtiter plate reader (Molecular Devices) at 650 nm as well as visual observation using a microtiter plate reading mirror.
(§3) Azithromycin potentiation activities of selected inhibitors for K. pneumoniae are reported as MPC16 values.

The subject of data set [2] is Klebsiella pneumoniae KPM1004 overexpressing the AcrABTolC efflux pump. The data set can be described thus: microbe, parasite or virus in culture. The note with it: lowest inhibitor concentration giving antibacterial activity with azithromycin at 1/16 of its MIC; K. pneumoniae KPM1004. The format is cell-based.
Excerpt: as §1, §2, §3

Data set [3] in a line: Rat serum pharmacokinetics after 1.5-hour IV infusion. Format: in vivo. The note with it: 1.5-hour IV infusion in 0.9% saline, dose (mg/kg) differs per compound, two-compartment model; for clearance: read-out: Clearance (free drug clearance) (converted). Here is the method:
In the experiment depicted in Table 7, above, rat serum pharmacokinetics of selected inhibitor compounds was evaluated after 1.5-hour IV infusion of 1.5 ml solution of corresponding efflux pump inhibitor in 0.9% saline. Depending on the concentration used the total infused dose was 2, 5, 10 or 20 mg/kg. A two-compartment model was used to fit the data and calculate PK parameters.

`NCCN(CCN)C(=O)CC[C@H](N)C(=O)N/C(=C/c1ccc(C(F)(F)F)cc1)C(=O)Nc1cnc2ccccc2c1` [Compound 4, 3-[(1S)-3-[bis(2-azaniumylethyl)carbamoyl]-1-{[(1E)-1-carbamoyl-2-[4-(trifluoromethyl)phenyl]eth-1-en-1-yl]carbamoyl}propan-1-aminium]quinolin-1-ium tetrachloride]: the “MPC8 (μg/mL) (Levofloxacin, PAM1723)” value in data set [1] worked out at 1.25 µg/mL. For the same compound, in data set [2], the “MPC16 (μg/mL) Azithromycin, KPM1004)” value is 1.25 µg/mL.

Turning to `Cl.Cl.Cl.Cl.NCCN(CCN)C(=O)C[C@H](Nc1ccc2ncccc2c1)C(=O)N[C@@H](CC1CCCCC1)C(N)=O` [Compound 13, 6-[(1S)-2-[bis(2-azaniumylethyl)carbamoyl]-1-{[(1S)-1-carbamoyl-2-cyclohexylethyl]carbamoyl}ethan-1-aminium]quinolin-1-ium tetrachloride], in data set [1], the “MPC8 (μg/mL) (Levofloxacin, PAM1723)” value was found to be 1.25 µg/mL.

Take “3-[(1S)-3-[bis(2-azaniumylethyl)carbamoyl]-1-{[(1R)-1-carbamoyl-2-[4-(trifluoromethyl)phenyl]ethyl]carbamoyl}propan-1-aminium]quinolin-1-ium tetrachloride [Compound 1]”: in data set [1], the “MPC8 (μg/mL) (Levofloxacin, PAM1723)” value came to 0.3 µg/mL. In addition, the “MPC16 (μg/mL) Azithromycin, KPM1004)” value in data set [2] amounted to 0.6 µg/mL.

As for “3-[(1S)-3-[bis(2-azaniumylethyl)carbamoyl]-1-{[(1S)-1-carbamoyl-2-[4-(trifluoromethyl)phenyl]ethyl]carbamoyl}propan-1-aminium]quinolin-1-ium tetrachloride [Compound 28]”, in data set [1], the “MPC8 (μg/mL) (Levofloxacin, PAM1723)” value is 1.25 µg/mL. Also, the “MPC16 (μg/mL) Azithromycin, KPM1004)” value in data set [2] is 1.25 µg/mL.

For the compound `Cl.Cl.Cl.Cl.Cl.NCCNCCN(CCN)C(=O)C[C@H](N)C(=O)N[C@@H](CCc1ccccc1)C(=O)Nc1cnc2ccccc2c1` [Compound 188, 3-[(2S)-2-[(1S)-2-[(2-azaniumylethyl)({2-[(2-azaniumylethyl)azaniumyl]ethyl})carbamoyl]-1-formamidoethan-1-aminium]-4-phenylbutanamido]quinolin-1-ium pentachloride], in data set [1], the “MPC8 (μg/mL) (Levofloxacin, PAM1723)” value was 0.6 µg/mL. Moreover, the “MPC16 (μg/mL) Azithromycin, KPM1004)” value in data set [2] is 1.25 µg/mL.

On to `Cl.Cl.Cl.Cl.NCCN(CCN)C(=S)C(C[C@H](N)C(=O)N[C@H](Cc1ccc(C(F)(F)F)cc1)C(N)=O)c1cnc2ccccc2c1` (stereo partly drawn) [Compound 12, 3-[(1S)-3-[bis(2-azaniumylethyl)carbamothioyl]-1-{[(1R)-1-carbamoyl-2-[4-(trifluoromethyl)phenyl]ethyl]carbamoyl}propan-1-aminium]quinolin-1-ium tetrachloride], for which the “MPC8 (μg/mL) (Levofloxacin, PAM1723)” value in data set [1] is 1.25 µg/mL. Also, the “MPC16 (μg/mL) Azithromycin, KPM1004)” value in data set [2] stood at 1.25 µg/mL.

With “3-[(1S)-3-[bis(2-azaniumylethyl)carbamoyl]-1-{[(1S)-1-carbamoyl-2-[4-(trifluoromethyl)phenyl]ethyl](methyl)carbamoyl}propan-1-aminium]quinolin-1-ium tetrachloride [Compound 5]”, the “MPC8 (μg/mL) (Levofloxacin, PAM1723)” value in data set [1] was found to be 0.6 µg/mL.

Take `CCOc1c(F)cc(NC(=O)[C@H](CCc2ccccc2)NC(=O)[C@@H](N)CC(=O)N(CCN)CCN)cc1F.Cl.Cl.Cl` [Compound 352, (1S)-2-[bis(2-azaniumylethyl)carbamoyl]-1-{[(1S)-1-[(4-ethoxy-3,5-difluorophenyl)carbamoyl]-3-phenylpropyl]carbamoyl}ethan-1-aminium trichloride]: in data set [3], the highest concentration (Cmax) is 2440 ng/mL and the clearance was 177 mL/min/kg.

On to `Cc1ccc(C)c(CNC(=O)[C@H](CCc2ccccc2)NC(=O)[C@@H](N)CC(=O)N(CCN)CCN)c1` [Compound 96], for which, in data set [3], the peak concentration (Cmax) is 3850 ng/mL and the clearance is 51.8 mL/min/kg.
